Experiment: in vivo
Conditions: male, SD, rat, po, 10 mg/kg
Description: Each test compound was suspended in a 0.5 W/V % methylcellulose 400 solution to prepare a suspension, and the resulting suspension was orally administered to a male SD rat of 7 to 8-week old (weight: 180 to 250 g). After 0.25, 0.5, 1, 2, 4, 8, and 24 hour(s) of the administration of each test compound, blood (EDTA-added blood) was collected from jugular vein under isoflurane inhalation anesthesia. […] To the resulting blood plasma was added acetonitrile, a mixed solvent of acetonitrile and water (1:1 (V/V)), or a mixed solvent of acetonitrile and 0.1 M hydrochloric acid (1:1 (V/V)), then the resulting mixture was mixed at 750 rpm for 3 minutes in a shaker, and subjected to centrifugal separation at 3700 rpm for 2 minutes in a centrifuge to remove proteins. The resulting sample was subjected to LC (liquid chromatography)/MS (mass spectrometry) measurement under the following measurement conditions.
Each compound concentration in blood plasma at each time of blood collection was calculated according to the internal standard method, and, area under the plasma concentration vs. time curve (AUCall (Area Under Curve)) was calculated according to the trapezoidal method.
The LC and MS systems used in the present test are as follows.
LC: LC20 or LC30 HPLC system manufactured by Shimadzu Corporation
Column: Phenomenex Kinetex C18 (50×2.1 mm, 2.6 μm)
Column temperature: 40° C.
Mobile phase A: aqueous solution with 0.1% formic acid, Mobile phase B: 50% acetonitrile/methanol solution with 0.1% formic acid

AUC: ≤ 100 ng·h/mL
Compound: Cl.N=C(N)Nc1ccc2c(c1)CCCOc1c(cccc1C(=O)N(CCOCCOCCN(C(=O)c1cccc3c1OCCCc1cc(NC(=N)N)ccc1C(=O)O3)[C@H](CC(=O)O)C(=O)O)[C@H](CC(=O)O)C(=O)O)OC2=O [21-(c), (2R,13R)-3,12-bis(10-guanidino-13-oxo-6,7,8,13-tetrahydrodibenzo[b,f][1,4]dioxecin-4-carbonyl)-6,9-dioxa-3,12-diazatetradecane-1,2,13,14-tetracarboxylic acid hydrochloride]

Reference: patent publication US11465965B2, “Double-headed protease inhibitor” (UBE INDUSTRIES, LTD., priority 2017, dated 2022)
